Measurements reported in patent US11649255B2, “Indazoles as hematopoietic progenitor kinase 1 (HPK1) inhibitors and methods using same” (1st Biotherapeutics, Inc., priority 2020, dated 2023).

Molecular target: recombinant human HPK1 (Homo sapiens (Human), UniProt Q92918)
Experiment: HPK1 kinase assay (ADP-Glo)
Format: biochemical
Details: 25 μM ATP, MBP substrate
How it was run: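 Activity was read as ADP formed, detected by ADP-Glo luminescence after the reaction of 5 ng recombinant human HPK1 with MBP and ATP (stocks 0.5 μg/μl and 25 μM) for 40 min at 30 °C. Buffer was Tris pH 7.5 with MgCl2, BSA and DTT, with compound in 0.5% DMSO. IC50 came from inhibition curves.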

recombinant human HPK1, sequence (Q92918 whole entry): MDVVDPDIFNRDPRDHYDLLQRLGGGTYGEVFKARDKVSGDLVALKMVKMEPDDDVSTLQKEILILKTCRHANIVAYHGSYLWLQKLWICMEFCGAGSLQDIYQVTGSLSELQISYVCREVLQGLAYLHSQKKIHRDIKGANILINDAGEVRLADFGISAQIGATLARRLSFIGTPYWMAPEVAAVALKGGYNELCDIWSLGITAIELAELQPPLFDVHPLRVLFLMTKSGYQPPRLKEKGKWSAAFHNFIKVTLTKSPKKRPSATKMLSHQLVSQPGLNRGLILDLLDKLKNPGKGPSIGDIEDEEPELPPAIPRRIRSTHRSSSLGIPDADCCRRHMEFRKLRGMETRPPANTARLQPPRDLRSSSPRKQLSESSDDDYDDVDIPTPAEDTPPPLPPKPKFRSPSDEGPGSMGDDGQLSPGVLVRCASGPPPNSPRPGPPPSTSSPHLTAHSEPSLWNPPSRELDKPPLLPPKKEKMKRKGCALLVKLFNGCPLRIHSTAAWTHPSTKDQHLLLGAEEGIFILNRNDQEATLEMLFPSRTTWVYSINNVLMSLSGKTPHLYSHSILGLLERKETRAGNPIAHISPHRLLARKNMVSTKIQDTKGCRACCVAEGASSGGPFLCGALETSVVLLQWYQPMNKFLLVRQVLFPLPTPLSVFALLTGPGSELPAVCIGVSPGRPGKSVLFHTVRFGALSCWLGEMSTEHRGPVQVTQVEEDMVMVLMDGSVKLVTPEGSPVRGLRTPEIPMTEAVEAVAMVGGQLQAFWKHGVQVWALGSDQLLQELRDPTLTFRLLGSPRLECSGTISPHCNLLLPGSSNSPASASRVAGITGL

IC50 [nM]	SMILES
101 to 500	CN(C)C(=O)c1c(F)cc(-c2ccn3nc(NC(=O)[C@@H]4C[C@@H]4F)cc3c2)c2cn[nH]c12 [Example 604, 6-fluoro-4-(2-((1S,2S)-2-fluorocyclopropane-1-carboxamido)pyrazolo[1,5-a]pyridin-5-yl)-N,N-dimethyl-1H-indazole-7-carboxamide]
> 1000	CN(C)C(=O)c1c(F)cc2[nH]ncc2c1-c1ccn2nc(NC(=O)[C@@H]3C[C@@H]3F)cc2c1 [Example 605, 6-fluoro-4-(2-((1S,2S)-2-fluorocyclopropane-1-carboxamido)pyrazolo[1,5-a]pyridin-5-yl)-N,N-dimethyl-1H-indazole-5-carboxamide]
< 100	CCOc1c(F)c(SC)c2[nH]ncc2c1-c1ccn2nc(NC(=O)[C@@H]3C[C@@H]3F)cc2c1 [Example 606, (1S,2S)-N-(5-(5-ethoxy-6-fluoro-7-(methylthio)-1H-indazol-4-yl)pyrazolo[1,5-a]pyridin-2-yl)-2-fluorocyclopropane-1-carboxamide]
< 100	O=C(Nc1cc2cc(-c3c(Cl)c(F)c(OC(F)(F)F)c4[nH]ncc34)ccn2n1)[C@@H]1C[C@@H]1F [Example 607, (1S,2S)-N-(5-(5-chloro-6-fluoro-7-(trifluoromethoxy)-1H-indazol-4-yl)pyrazolo[1,5-a]pyridin-2-yl)-2-fluorocyclopropane-1-carboxamide]
< 100	CCc1c(F)c(SC2(C#N)CC2)c2[nH]ncc2c1-c1ccn2nc(NC(=O)[C@@H]3C[C@@H]3F)cc2c1 [Example 608, (1S,2S)-N-(5-(7-((1-cyanocyclopropyl)thio)-5-ethyl-6-fluoro-1H-indazol-4-yl)pyrazolo[1,5-a]pyridin-2-yl)-2-fluorocyclopropane-1-carboxamide]
< 100	O=C(Nc1cc2cc(-c3c(Cl)c(F)c(Nc4ccncc4)c4[nH]ncc34)ccn2n1)[C@@H]1C[C@@H]1F [Example 609, (1S,2S)-N-(5-(5-chloro-6-fluoro-7-(pyridin-4-ylamino)-1H-indazol-4-yl)pyrazolo[1,5-a]pyridin-2-yl)-2-fluorocyclopropane-1-carboxamide]
< 100	CCOc1c(F)c(N(C)C)c2[nH]ncc2c1-c1ccn2nc(NC(=O)[C@@H]3C[C@@H]3F)cc2c1 [Example 610, (1S,2S)-N-(5-(7-(dimethylamino)-5-ethoxy-6-fluoro-1H-indazol-4-yl)pyrazolo[1,5-a]pyridin-2-yl)-2-fluorocyclopropane-1-carboxamide]
< 100	CCOc1c(F)c(F)c2[nH]ncc2c1-c1ccn2nc(NC(=O)[C@@H]3C[C@@H]3F)cc2c1 [Example 611, (1S,2S)-N-(5-(5-ethoxy-6,7-difluoro-1H-indazol-4-yl)pyrazolo[1,5-a]pyridin-2-yl)-2-fluorocyclopropane-1-carboxamide]
< 100	CN(CC#N)C(=O)c1c(F)c(Cl)c(-c2ccn3nc(NC(=O)[C@@H]4C[C@@H]4F)cc3c2)c2cn[nH]c12 [Example 612, 5-chloro-N-(cyanomethyl)-6-fluoro-4-(2-((1S,2S)-2-fluorocyclopropane-1-carboxamido)pyrazolo[1,5-a]pyridin-5-yl)-N-methyl-1H-indazole-7-carboxamide]
< 100	CN(c1ncc(F)cn1)c1c(F)c(Cl)c(-c2ccn3nc(NC(=O)[C@@H]4C[C@@H]4F)cc3c2)c2cn[nH]c12 [Example 613, (1S,2S)-N-(5-(5-chloro-6-fluoro-7-((5-fluoropyrimidin-2-yl)(methyl)amino)-1H-indazol-4-yl)pyrazolo[1,5-a]pyridin-2-yl)-2-fluorocyclopropane-1-carboxamide]
< 100	CN(c1ccncc1)c1c(F)c(Cl)c(-c2ccn3nc(NC(=O)[C@@H]4C[C@@H]4F)cc3c2)c2cn[nH]c12 [Example 614, (1S,2S)-N-(5-(5-chloro-6-fluoro-7-(methyl(pyridin-4-yl)amino)-1H-indazol-4-yl)pyrazolo[1,5-a]pyridin-2-yl)-2-fluorocyclopropane-1-carboxamide]
< 100	CC(=O)N(CC#N)c1c(F)c(Cl)c(-c2ccn3nc(NC(=O)[C@@H]4C[C@@H]4F)cc3c2)c2cn[nH]c12 [Example 615, (1S,2S)-N-(5-(5-chloro-7-(N-(cyanomethyl)acetamido)-6-fluoro-1H-indazol-4-yl)pyrazolo[1,5-a]pyridin-2-yl)-2-fluorocyclopropane-1-carboxamide]
< 100	CN(CCc1ccncc1)c1c(F)c(Cl)c(-c2ccn3nc(NC(=O)[C@@H]4C[C@@H]4F)cc3c2)c2cn[nH]c12 [Example 616, (1S,2S)-N-(5-(5-chloro-6-fluoro-7-(methyl(2-(pyridin-4-yl)ethyl)amino)-1H-indazol-4-yl)pyrazolo[1,5-a]pyridin-2-yl)-2-fluorocyclopropane-1-carboxamide]
< 100	CN(c1ncncn1)c1c(F)c(Cl)c(-c2ccn3nc(NC(=O)[C@@H]4C[C@@H]4F)cc3c2)c2cn[nH]c12 [Example 617, (1S,2S)-N-(5-(5-chloro-6-fluoro-7-(methyl(1,3,5-triazin-2-yl)amino)-1H-indazol-4-yl)pyrazolo[1,5-a]pyridin-2-yl)-2-fluorocyclopropane-1-carboxamide]
< 100	CN(c1nccnn1)c1c(F)c(Cl)c(-c2ccn3nc(NC(=O)[C@@H]4C[C@@H]4F)cc3c2)c2cn[nH]c12 [Example 618, (1S,2S)-N-(5-(5-chloro-6-fluoro-7-(methyl(1,2,4-triazin-3-yl)amino)-1H-indazol-4-yl)pyrazolo[1,5-a]pyridin-2-yl)-2-fluorocyclopropane-1-carboxamide]
< 100	CC(C)Nc1c(F)c(Cl)c(-c2ccn3nc(NC(=O)[C@@H]4C[C@@H]4F)cc3c2)c2cn[nH]c12 [Example 619, (1S,2S)-N-(5-(5-chloro-6-fluoro-7-(isopropylamino)-1H-indazol-4-yl)pyrazolo[1,5-a]pyridin-2-yl)-2-fluorocyclopropane-1-carboxamide]
< 100	CN(c1c(F)c(Cl)c(-c2ccn3nc(NC(=O)[C@@H]4C[C@@H]4F)cc3c2)c2cn[nH]c12)C1CCC1 [Example 620, (1S,2S)-N-(5-(5-chloro-7-(cyclobutyl(methyl)amino)-6-fluoro-1H-indazol-4-yl)pyrazolo[1,5-a]pyridin-2-yl)-2-fluorocyclopropane-1-carboxamide]
< 100	CCSc1c(F)c(Cl)c(-c2ccn3nc(NC(=O)[C@@H]4C[C@@H]4F)cc3c2)c2cn[nH]c12 [Example 621, (1S,2S)-N-(5-(5-chloro-7-(ethylthio)-6-fluoro-1H-indazol-4-yl)pyrazolo[1,5-a]pyridin-2-yl)-2-fluorocyclopropane-1-carboxamide]
< 100	CC(C)N(C)c1c(F)c(Cl)c(-c2ccn3nc(NC(=O)[C@@H]4C[C@@H]4F)cc3c2)c2cn[nH]c12 [Example 622, (1S,2S)-N-(5-(5-chloro-6-fluoro-7-(isopropyl(methyl)amino)-1H-indazol-4-yl)pyrazolo[1,5-a]pyridin-2-yl)-2-fluorocyclopropane-1-carboxamide]
< 100	CN1CCN(c2c(F)c(Cl)c(-c3ccn4nc(NC(=O)[C@@H]5C[C@@H]5F)cc4c3)c3cn[nH]c23)C1=O [Example 623, (1S,2S)-N-(5-(5-chloro-6-fluoro-7-(3-methyl-2-oxoimidazolidin-1-yl)-1H-indazol-4-yl)pyrazolo[1,5-a]pyridin-2-yl)-2-fluorocyclopropane-1-carboxamide]
< 100	COC1CN(c2c(F)c(Cl)c(-c3ccn4nc(NC(=O)[C@@H]5C[C@@H]5F)cc4c3)c3cn[nH]c23)C1 [Example 624, (1S,2S)-N-(5-(5-chloro-6-fluoro-7-(3-methoxyazetidin-1-yl)-1H-indazol-4-yl)pyrazolo[1,5-a]pyridin-2-yl)-2-fluorocyclopropane-1-carboxamide]
< 100	CN(c1c(F)c(Cl)c(-c2ccn3nc(NC(=O)[C@@H]4C[C@@H]4F)cc3c2)c2cn[nH]c12)C1CC1 [Example 625, (1S,2S)-N-(5-(5-chloro-7-(cyclopropyl(methyl)amino)-6-fluoro-1H-indazol-4-yl)pyrazolo[1,5-a]pyridin-2-yl)-2-fluorocyclopropane-1-carboxamide]
< 100	O=Cc1c(F)c(Cl)c(-c2ccn3nc(NC(=O)[C@@H]4C[C@@H]4F)cc3c2)c2cn[nH]c12 [Example 626, (1S,2S)-N-(5-(5-chloro-6-fluoro-7-formyl-1H-indazol-4-yl)pyrazolo[1,5-a]pyridin-2-yl)-2-fluorocyclopropane-1-carboxamide]
< 100	COCC1CN(c2c(F)c(Cl)c(-c3ccn4nc(NC(=O)[C@@H]5C[C@@H]5F)cc4c3)c3cn[nH]c23)C1 [Example 627, (1S,2S)-N-(5-(5-chloro-6-fluoro-7-(3-(methoxymethyl)azetidin-1-yl)-1H-indazol-4-yl)pyrazolo[1,5-a]pyridin-2-yl)-2-fluorocyclopropane-1-carboxamide]
< 100	O=C(Nc1cc2cc(-c3c(Cl)c(F)c(N4CCS(=O)(=O)CC4)c4[nH]ncc34)ccn2n1)[C@@H]1C[C@@H]1F [Example 628, (1S,2S)-N-(5-(5-chloro-7-(1,1-dioxidothiomorpholino)-6-fluoro-1H-indazol-4-yl)pyrazolo[1,5-a]pyridin-2-yl)-2-fluorocyclopropane-1-carboxamide]
< 100	CC1CN(c2c(F)c(Cl)c(-c3ccn4nc(NC(=O)[C@@H]5C[C@@H]5F)cc4c3)c3cn[nH]c23)C1 [Example 630, (1S,2S)-N-(5-(5-chloro-6-fluoro-7-(3-methylazetidin-1-yl)-1H-indazol-4-yl)pyrazolo[1,5-a]pyridin-2-yl)-2-fluorocyclopropane-1-carboxamide]
< 100	O=C(Nc1cc2cc(-c3c(Cl)c(F)c(N4CCSCC4)c4[nH]ncc34)ccn2n1)[C@@H]1C[C@@H]1F [Example 631, (1S,2S)-N-(5-(5-chloro-6-fluoro-7-thiomorpholino-1H-indazol-4-yl)pyrazolo[1,5-a]pyridin-2-yl)-2-fluorocyclopropane-1-carboxamide]
